In patent US8940685B2, “Method for preparing active peptides from corn germ proteins” (China National Research Institute of Food and Fermentation …, priority 2011, dated 2015):

What was measured:
[1] = tested on: SHR; conditions: oral gavage 50 mg/kg, after two hours; cited from earlier work
[2] = biological target: ACE (Homo sapiens, UniProt P12821); conditions: read-out: in vitro antihypertensive activity IC50; cited from earlier work
[3] = tested on: spontaneous hypertension rats; assay: antihypertensive effect on spontaneous hypertension rat, 8 weeks of continuous gavage; assay type: in vivo; conditions: for blood pressure: Captopril group 10 mg/kg.bw gavage, n = 8
Experimental: The blank control group was gavaged with the same volume of distilled water, and the positive control group was gavaged with 10 mg/kg.bw captopril.

[4] = after 8 weeks of continuous gavage, each group, P>0.05

Chain of ACE (P12821 30-1306, species assumed): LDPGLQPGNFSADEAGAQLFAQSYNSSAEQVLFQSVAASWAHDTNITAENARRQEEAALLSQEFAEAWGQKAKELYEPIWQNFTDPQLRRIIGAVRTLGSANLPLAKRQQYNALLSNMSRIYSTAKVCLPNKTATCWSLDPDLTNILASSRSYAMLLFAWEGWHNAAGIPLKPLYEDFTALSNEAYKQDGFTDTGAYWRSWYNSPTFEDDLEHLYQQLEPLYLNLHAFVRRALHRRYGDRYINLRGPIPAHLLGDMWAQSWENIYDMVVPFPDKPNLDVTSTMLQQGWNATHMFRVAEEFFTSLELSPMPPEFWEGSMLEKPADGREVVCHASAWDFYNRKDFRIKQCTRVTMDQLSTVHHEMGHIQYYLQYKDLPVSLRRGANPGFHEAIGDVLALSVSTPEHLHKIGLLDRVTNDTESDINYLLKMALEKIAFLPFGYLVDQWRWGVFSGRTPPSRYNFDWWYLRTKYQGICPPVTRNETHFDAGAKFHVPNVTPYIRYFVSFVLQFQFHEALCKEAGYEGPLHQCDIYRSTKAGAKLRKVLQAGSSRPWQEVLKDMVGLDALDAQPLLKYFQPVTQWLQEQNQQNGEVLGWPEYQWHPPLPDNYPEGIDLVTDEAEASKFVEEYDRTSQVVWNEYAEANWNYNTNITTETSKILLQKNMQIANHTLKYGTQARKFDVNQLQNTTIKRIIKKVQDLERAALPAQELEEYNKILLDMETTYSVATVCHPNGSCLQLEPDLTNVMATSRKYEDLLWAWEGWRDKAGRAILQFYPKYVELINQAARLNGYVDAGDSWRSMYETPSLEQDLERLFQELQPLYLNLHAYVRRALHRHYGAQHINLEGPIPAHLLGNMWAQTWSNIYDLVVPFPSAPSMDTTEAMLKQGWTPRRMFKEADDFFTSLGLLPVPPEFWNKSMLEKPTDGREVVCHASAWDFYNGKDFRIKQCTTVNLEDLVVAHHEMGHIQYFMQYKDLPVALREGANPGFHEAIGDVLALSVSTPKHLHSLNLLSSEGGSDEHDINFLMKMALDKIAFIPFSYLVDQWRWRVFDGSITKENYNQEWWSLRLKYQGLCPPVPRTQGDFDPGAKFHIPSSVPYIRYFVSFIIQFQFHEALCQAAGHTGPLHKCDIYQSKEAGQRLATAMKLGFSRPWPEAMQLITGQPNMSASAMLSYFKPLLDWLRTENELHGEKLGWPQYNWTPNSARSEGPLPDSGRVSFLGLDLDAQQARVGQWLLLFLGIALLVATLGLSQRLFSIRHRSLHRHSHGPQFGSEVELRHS

alanine-Tyrosine [AY]
drop of blood pressure [1]: 9.5 mmHg
IC50 [2]: 14.2 µM

C[C@H](CS)C(=O)N1CCC[C@H]1C(=O)O [Captopril, captopril]
blood pressure ([3]; 0w): 193 ± 6 mmHg
blood pressure ([3]; 1w): 184 ± 16 mmHg
blood pressure ([3]; 2w): 177 ± 9 mmHg
blood pressure ([3]; 3w): 174 ± 12 mmHg
blood pressure ([3]; 4w): 170 ± 14 mmHg
blood pressure ([3]; 5w): 168 ± 12 mmHg
blood pressure ([3]; 6w): 164 ± 17 mmHg
blood pressure ([3]; 7w): 162 ± 15 mmHg
blood pressure ([3]; 8w): 161 ± 16 mmHg
body weight [3, 4]: no significant change
heart rate [3, 4]: no significant change
heart/body weight ratio [3, 4]: no significant change
Serum aldosterone concentration vs control group ([3]; captopril group 10 mg/kg.bw, n=8, P<0.01): significantly lower
